# Reference: paper PMC10819771 (Pharmaceuticals, 2023)
# System: F21T (DNA, G4) GGGTTAGGGTTAGGGTTAGGG
# Assay: FRET melting
# Conditions: 10 mM K+, 90 mM Li+; 10 mM lithium cacodylate pH 7.2; 0.2 µM DNA, 2 µM compound
smiles,measurement,value
"CN1CCN(CCCCNCc2ccc(-c3nc(-c4ccc(CNCCCCN5CCN(C)CC5)cc4)c4cc(-c5ccccc5)ccc4n3)cc2)CC1 [Compound 12e, 2,4-bis{4-[(4-(4-methylpiperazin-1-yl)butyl)aminomethyl]phenyl}-6-phenylquinazoline]",ΔT1/2,33.9 ± 0.5 °C
